Key:
Colon-26 cells = test: In vitro photosensitizing efficacy (MTT assay); type: cell-based; conditions: for in vitro photosensitizing efficacy among all the compounds tested (fraction survival vs. light dose): 24 h incubation, light 0-2 J/cm^2, MTT; for PDT efficacy compared to the free base analogs: In(III) complex vs. free base
Procedure: In graphs A-E, Y=fraction surviving and X=Light dose in J/cm^2. The numbers in the legends refer to compound number in FIGS. 7-12.
In vitro Photosensitizing Efficacy (MTT Assay]: Colon-26 cells were grown in α-DMEM with 10% fetal calf serum, and penicillin and streptomycin. Cells were maintained in 5% CO2 and 95% air at 100% humidity. For phototoxicity studies, cells were placed in 96-well plates at a density of 5×10^4 cells/well, in complete medium. 24 h later, compounds were added at variable concentration. After 24 incubation in the dark at 37° C., the cells were irradiated with a laser light from an argon pumped dye laser using flunces of 0-2 J/cm^2 at a dose of 5.6 mW/cm^2. After PDT, the cells were washed once, placed in complete medium, and incubated for 48 h. Cells were incubated with 10 μL/well of 4 mg/mL MTT for the final 4 h. The MTT-containing medium was removed, and 100 μL DMSO was added to solubilize the formazan crystals. The absorbance of the wells was read on a microtiter plate reader at a wavelength of 560 nm.^10 The results were plotted as fraction survival vs. the light dose used at the same concentrations. […] These compounds are currently being evaluated for in vivo efficacy, where the pharmacokinetic and the pharmacodynamic properties of the molecules will have a significant impact in efficacy.

[1] = earlier work; cited from earlier work

Row | Compound | in vitro photosensitizing efficacy among all the compounds tested (fraction survival vs. light dose) (Colon-26 cells) | PDT efficacy compared to the free base analogs (Colon-26 cells) | PDT activity among alkyl ether analogs of pyropheophorbide-a [1]
1 | CC[C@H]1/C2=C/c3c(C)c4c5[n]3[In]([Cl])[n]3/c(c(C)c(C(C)=O)/c3=C/C(=N2)[C@@H]1C)=C\C1=NC(=C\5CC4=O)/[C@@H](CCC(=O)OC)[C@@H]1C [compound 23] | most effective | – | –
2 | CC[C@H]1/C2=C/c3c(C)c4c5[n]3[In]([Cl])[n]3/c(c(C)c(C(C)=O)/c3=C/C(=N2)[C@@H]1C)=C\C1=NC(=C\5CC4=O)/C(CCC(=O)OC)=C1C [compound 22] | most effective | enhanced PDT efficacy | –
3 | 3-(1-hexyloxyethyl)-3-devinyl-pyropheophorbide-a [compound 3a] | – | – | most effective
4 | CCCCCCOC(C)c1c(C)/c2[n]3/c1=C\C1=NC(=C\c4c(C)c5c([n]4[In]3[Cl])/C(=C3N=C(\C=2)C(C)=C\3CCC(=O)OC)CC5=O)/[C@H](CC)[C@H]1C (some centres unmarked) [compound 24] | – | enhanced PDT efficacy | –

Source: patent US8679459B2, “B ring reduced-D ring oxidized tetrapyrrolic photosensitizers for photodynamic therapy and tumor imaging” (Health Research, Inc., priority 2008, dated 2014)
